According to patent US11938189B2, “Compositions and methods for stabilizing protein-containing formulations” (Genentech, Inc., priority 2010, dated 2024):

What was measured:
[1] = test system: anti-MUC16 monoclonal antibody; assay: Stirring-induced aggregation (500 rpm), turbidity; type: physicochemical; settings: surfactant at one-tenth of its CMC; stirring 500 rpm, ambient temperature, 90 minutes; FIG. 2
Method: In this set of studies, a Tefloncoated magnetic stir bar was used to induce agitation in a buffered solution (20 mM histidine-acetate, pH 5.5) of monoclonal antibody. 3 ml of the antibody solution was filled in a 6 cc glass vial and the solution was stirred at 500 rpm using a Teflon-coated stir bar. The solution was stirred for a period of 90 minutes and samples were withdrawn at regular intervals and analyzed for turbidity as an indication of formation of insoluble aggregates. Various surfactants of the class of alkylglycosides were evaluated for their effectiveness to prevent protein aggregation during shaking. The surfactants were used at concentrations below their respective critical micelle concentration (CMC) or above their respective CMC.
FIGS. 2 and 3 show the time-course of turbidity formation in a solution of the anti-MUC16 monoclonal antibody following stirring at 500 rpm using a Teflon-coated magnetic bar at ambient temperature for a period of 90 minutes. Turbidity was evaluated in solutions containing no surfactant as well as in solutions containing different alkylglycoside surfactants or polysorbate 20. […]

[2] = test system: anti-MUC16 monoclonal antibody; assay: Shaking at 300 rpm, percent monomer of antibody; type: physicochemical; settings: shaking 300 rpm, 72 hours, 37° C.
Method: (§1) In this set of studies, a buffered solution (20 mM sodium phosphate buffer, pH 7.4) of monoclonal antibody was subjected to shaking on an orbital shaker at 150 rpm, at a controlled temperature of 37° C. These studies were carried out using a 3 ml solution fill of the antibody solution in a 6 cc glass vial. Samples were withdrawn at regular intervals and analyzed for percent monomer using size-exclusion chromatography. Various surfactants of the class of alkylglycosides were evaluated for their effectiveness to prevent protein aggregation during shaking. The surfactants were used at concentrations below their respective critical micelle concentration (CMC) or above their respective CMC.
In FIG. 5, the effect of varying the concentration of n-octyl-β-D-glucopyranoside on the percent monomer of the anti-MUC16 monoclonal antibody in solution, following shaking at 300 rpm at 37° C. for 72 hours was investigated.
(§2) In FIGS. 10-13, the effect of 0.23 mM (0.02% w/v) polysorbate 20 or 3.6 mM (0.1% w/v) n-octyl-β-D-glucopyranoside on the percent monomer of aqueous formulations of an anti-MUC16 monoclonal antibody (FIG. 10), an anti-IgE monoclonal antibody (FIG. 11), an anti-CD11a monoclonal antibody (FIG. 12), and an anti-CD22 monoclonal antibody (FIG. 13), during shaking at 300 rpm for 72 hours at 37° C. was investigated.

[3] = test system: anti-IgE monoclonal antibody; assay: Shaking at 300 rpm, percent monomer of antibody; type: physicochemical; settings: 3.6 mM (0.1% w/v); shaking 300 rpm, 72 hours, 37° C.; FIG. 11
Method: as §1, §2

[4] = test system: anti-CD11a monoclonal antibody; assay: Shaking at 300 rpm, percent monomer of antibody; type: physicochemical; settings: 3.6 mM (0.1% w/v); shaking 300 rpm, 72 hours, 37° C.; FIG. 12
Method: as §1, §2

[5] = test system: anti-CD22 monoclonal antibody; assay: Shaking at 300 rpm, percent monomer of antibody; type: physicochemical; settings: 3.6 mM (0.1% w/v); shaking 300 rpm, 72 hours, 37° C.; FIG. 13
Method: as §1, §2

[6] = test system: anti-IgE monoclonal antibody; assay: Shaking at 300 rpm, turbidity of antibody formulation; type: physicochemical; settings: 0.23 mM (0.02% w/v) polysorbate 20 or 3.6 mM (0.1% w/v) n-octyl-β-D-glucopyranoside; shaking 300 rpm, 72 hours, 37° C.; FIG. 7
Method: as §1
as §2, with “6-9,” for “10-13,”, “turbidity” for “percent monomer”, “6),” for “10),”, “7),” for “11),”, “8),” for “12),”, “9),” for “13),”

[7] = test system: anti-CD11a monoclonal antibody; assay: as above; type: physicochemical; settings: 0.23 mM (0.02% w/v) polysorbate 20 or 3.6 mM (0.1% w/v) n-octyl-β-D-glucopyranoside; shaking 300 rpm, 72 hours, 37° C.; FIG. 8
Method: as §1
as §2, with “6-9,” for “10-13,”, “turbidity” for “percent monomer”, “6),” for “10),”, “7),” for “11),”, “8),” for “12),”, “9),” for “13),”

[8] = test system: anti-CD22 monoclonal antibody; assay: as above; type: physicochemical; settings: 0.23 mM (0.02% w/v) polysorbate 20 or 3.6 mM (0.1% w/v) n-octyl-β-D-glucopyranoside; shaking 300 rpm, 72 hours, 37° C.; FIG. 9
Method: as §1
as §2, with “6-9,” for “10-13,”, “turbidity” for “percent monomer”, “6),” for “10),”, “7),” for “11),”, “8),” for “12),”, “9),” for “13),”

[9] = test system: anti-MUC16 monoclonal antibody; assay: Shaking-induced aggregation (150 rpm), percent monomer by size-exclusion chromatography; type: physicochemical; settings: surfactant at one half of its CMC; shaking 150 rpm, 37° C., 64 hours; FIG. 1
Method: as §1
The surfactants were employed at one half the concentration of their respective CMC values, i.e., 1.1 mM (0.035% w/v) n-decyl-β-D-glucopyranoside, 9 mM (0.24%) n-octyl-β-D-glucopyranoside and 0.04 mM (0.0035%) polysorbate 20.

[10] = in water at 20-25° C.; cited from earlier work
[11] = test system: anti-CD11a monoclonal antibody; assay: Oxidation of Met256 on storage in surfactant-containing antibody solution; type: physicochemical; settings: 0.1% w/v surfactant, FIG. 15
Method: In a second experiment, oxidation of the Met256 amino acid residue in an anti-CD11a monoclonal antibody in solutions containing either n-decyl-β-D-glucopyranoside, n-octyl-β-D-glucopyranoside, or polysorbate 20 was evaluated. For this purpose, 3 ml of the buffered antibody solution (pH 6.0) containing 0.1% w/v of the surfactant was stored in 6 cc vials at either 5° C. or 40° C. for a period of either 2 or 4 weeks.

[12] = test system: anti-CD22 monoclonal antibody; assay: Fenton reagent-induced oxidation of Met and Trp residues (phenyl RP-HPLC); type: physicochemical; settings: 3.6 mM (0.1% w/v); 0.1 ppm Fe3+ and 1 ppm hydrogen peroxide, 2 or 4 weeks at 40° C., pH 5.5; compared with 0.23 mM polysorbate 20 and no surfactant; FIG. 16
Method: In a third experiment, Fenton reagent-induced oxidation of Met and Trp amino acid residues (i.e., amino acids known to be susceptible to oxidation) in an anti-CD22 monoclonal antibody was analyzed. Specifically, buffered (20 mM histidine acetate, pH 5.5) solutions of anti-CD22 monoclonal antibody containing 0.1 ppm Fe^3+ and 1 ppm hydrogen peroxide were prepared and stored for either 2 or 4 weeks at 40° C., either in the absence of surfactant or in the presence of 0.23 mM (0.02% w/v) polysorbate 20 or 3.6 mM (0.1% w/v) n-octyl-β-D-glucopyranoside. samples were then withdrawn and percent oxidation of Met and Trp residues was determined from the percent early peaks of the antibody eluting through a phenyl RP-HPLC column.

[13] = test system: anti-MUC16 monoclonal antibody; assay: Shaking at 300 rpm, turbidity of antibody formulation; type: physicochemical; settings: shaking 300 rpm, 72 hours, 37° C.
Method: as §1
In FIG. 4, the effect of varying the concentration of n-octyl-β-D-glucopyranoside on the turbidity of anti-MUC16 monoclonal antibody formulations during shaking at 300 rpm for 72 hours at 37° C. was investigated.
as §2, with “6-9,” for “10-13,”, “turbidity” for “percent monomer”, “6),” for “10),”, “7),” for “11),”, “8),” for “12),”, “9),” for “13),”

[14] = test system: Humanized anti-oxidized LDL monoclonal antibody; assay: Light-induced oxidation of tryptophan residues (LC/MS/MS tryptic peptide map); type: physicochemical; settings: Light 24 hrs; 0.02% surfactant
Method: MAb samples and light treatment: Humanized anti-oxidized LDL monoclonal antibody, was produced at Genentech, Inc. from a CHO cell line. Three independent samples were prepared for photostability studies: 1) control sample, vial wrapped with aluminum foil; 2) test sample, vial light exposed (unwrapped); 3) test sample, vial light exposed (unwrapped) containing the specified non-ionic surfactant. Both control & light exposed samples were kept in a light box for 24 hrs. Light exposure following ICH guideline with following setting for a Atlas SUNTEST CPS+Light Box: Irradiance level=250 watts/square meter; Time set for 24 hours; Total UV dose=538 watt-hours/square meter; Total visible dose=1,320,000 lux-hours.
LC/MS/MS of tryptic MAb peptide map: Samples were digested with trypsin after reduction and alkylation. The resulting peptides were analyzed with a Thermo LTQ-Orbitrap mass spectrometer coupled with an Agilent 1200 capillary HPLC system. HPLC column: Jupiter 5 um C18 250×1.0 mm, flow rate: 70 uL/min, column oven temperature: 55° C. Solvent A: 0.1% TFA in water, B: 0.09% TFA in 90% ACN. Orbitrap setting: MS resolution 60000, MS/MS collected in data dependent mode, using LTQ.
The effect of light, and the protective effect of non-ionic surfactants, on the oxidation of tryptophan residues on an anti-oxidized LDL antibody was determined.

[15] = Hydrogen peroxide formation in stored surfactant solutions (Amplex Red Hydrogen Peroxide assay); type: physicochemical; settings: 0.1% w/v surfactant in water, stored at 40° C. for one month; FIG. 14
Method: In a first experiment, solutions of surfactants of the class of alkylglycosides, i.e., n-decyl-β-D-glucopyranoside, n-octyl-β-D-glucopyranoside, and n-decyl-β-D-maltopyranoside, as well as polysorbate 20 at a concentration of 0.1% w/v in water were stored at 40° C. for a period of one month. Samples were then withdrawn and analyzed for the presence of hydrogen peroxide using the Amplex Red Hydrogen Peroxide assay. the results of these analyses are shown in FIG. 14.

[16] = 0.23 mM (0.02% w/v) polysorbate 20 or 3.6 mM (0.1% w/v) n-octyl-β-D-glucopyranoside, FIG. 6

Compound: CCCCCCCCO[C@@H]1O[C@H](CO)[C@@H](O)[C@H](O)[C@H]1O [n-octyl-β-D-glucopyranoside]
- prevention of turbidity development on stirring [1]: effective in preventing turbidity development
- maintenance of percent monomer upon shaking vs unshaken sample ([2]; 3.6 mM (0.1% w/v), FIG. 10): effectively maintained the percent monomer
- maintenance of percent monomer upon shaking vs unshaken sample ([2]; all concentrations tested (0.72-18 mM), FIG. 5): effectively maintained the percent monomer
- maintenance of percent monomer upon shaking vs unshaken sample [3]: effectively maintained the percent monomer
- maintenance of percent monomer upon shaking vs unshaken sample [4]: effectively maintained the percent monomer
- maintenance of percent monomer upon shaking vs unshaken sample [5]: effectively maintained the percent monomer
- inhibition of visible antibody aggregates measured by turbidity formation [6]: effectively inhibited the formation of visible antibody aggregates
- inhibition of visible antibody aggregates measured by turbidity formation [7]: effectively inhibited the formation of visible antibody aggregates
- inhibition of visible antibody aggregates measured by turbidity formation [8]: effectively inhibited the formation of visible antibody aggregates
- prevention of shaking-induced loss of percent monomer [9]: effective in preventing loss of monomer
- CMC Value [10]: 18 mM
- CMC Value (w/v) [10]: 0.53% w/v
- increase in percent oxidized Met256 vs initial sample ([11]; pH 6.0, stored at 5° C. or 40° C. for 2 or 4 weeks): no significant increase
- Fenton reagent-induced oxidation of susceptible amino acids (Trp, Met) [12]: inhibited
- inhibition of visible antibody aggregates measured by turbidity formation [13, 16]: effectively inhibited the formation of visible antibody aggregates
- inhibition of visible antibody aggregates measured by turbidity formation ([13]; 0.72, 1.8, 3.6, 9 and 18 mM n-octyl-β-D-glucopyranoside, FIG. 4): effectively inhibited the formation of visible antibody aggregates

Compound: polyoxyethylene sorbitan monolaurate [polysorbate 20, reference compound]
- % Oxidized Trp33 [14]: 0.6%
- % Oxidized Trp92 [14]: 8.9%
- prevention of turbidity development on stirring [1]: effective in preventing turbidity development
- inhibition of visible antibody aggregates measured by turbidity formation [6]: effectively inhibited the formation of visible antibody aggregates
- inhibition of visible antibody aggregates measured by turbidity formation [7]: effectively inhibited the formation of visible antibody aggregates
- inhibition of visible antibody aggregates measured by turbidity formation [8]: effectively inhibited the formation of visible antibody aggregates
- prevention of shaking-induced loss of percent monomer [9]: not effective in preventing shaking-induced loss of monomer
- percent of Met256 residues oxidized ([11]; pH 6.0, storage at 40° C. for 4 weeks): approximately 16%
- percent of Met256 residues oxidized ([11]; pH 6.0, time zero): approximately 2%
- hydrogen peroxide formed in surfactant solution [15]: about 10 μM
- inhibition of visible antibody aggregates measured by turbidity formation [13, 16]: effectively inhibited the formation of visible antibody aggregates
